Experimental data: US20170080063A1, “HIGHLY SOLUBLE AQUAPORIN-4 EXTRACELLULAR LOOP C PEPTIDE IMMUNIZATION FOR TREATMENT OF NEUROMYELITIS OPTICA” (THE JOHNS HOPKINS UNIVERSITY, priority 2014, published 2017)
“Also recorded” adds a separate entry of the source.

Key:
mice = assay: Neurological symptoms / clinical phenotype in mice given peptide; format: in vivo, mouse; details: for neurological symptoms (paralysis from spinal cord inflammation, visual impairment from optic nerve inflammation): mice administered the peptide; for clinical phenotype / autoimmune neurological disease after immunization: immunized AQP4 null mice
T cells = assay: T cell proliferation assay (3H-thymidine incorporation) with spleen cells of immunized mice; format: cell-based, mouse; details: for T cell response against the peptide: T cells from AQP4 null mice immunized with AQP4 loop peptides
AQP4 null mice = assay: Antibody production against AQP4 extracellular loop peptides after immunization; format: in vivo, mouse; details: AQP4 null mice immunized with the peptides
[1] = system: IL-17 and interferon-gamma (IFN-γ) cytokine-producing cells; assay: ELISPOT assay of cytokine-producing cells; format: cell-based, mouse
Protocol: ELISPOT assay was used to determine the frequency of cytokine-producing cells in polarized and unpolarized cell cultures. The day before cells were to be harvested from immunized AQP4 null mice, the wells of an immobilon P-bottom 96-well plates (Multiscreen®HTS, 0.45 μm pore size; EMB Millipore, USA) were pre-wet with 35% ethanol for 30 seconds, washed three times with coating buffer, and coated with 50 μl of a 1:250 dilution of capture antibody, anti-IL17 (Th17), provided with ELISPOT Ready-Set-Go kits (eBioscience). Plates were covered and incubated overnight at 4° C. Wells were then washed twice with coating buffer and once with complete media; plates were stored in the incubator until cells were prepared. Spleen and lymph node cells were prepared as described above and prepared with and without polarizing conditions. Harvested cells were 2-fold serially diluted in media containing 3×10^7 irradiated splenocytes (irradiated with 3,500 rads) as antigen-presenting cells (APCs); APCs mixed 12:1 with 1.25×10^5 lymph node cells per well yielded the most well-defined spots. After overnight in culture, wells were washed (TBS+0.05% Tween®-20). Detection antibody was diluted 1:250 in diluents provided in the kit and 50 μl applied to each well for 2 hours at RT. After washing, streptavidin-alkaline phosphatase was added to each well (1:2500; Sigma) for 45 minutes. After further washing, signal was developed with development solution containing BCIP and NBT (i.e. 150 mM Tris-HCl, 5 mM MgCl2, 100 mM NaCl, pH9.5 supplemented with 4 mM levamisole (Sigma), 0.15 mg/ml 5-bromo-4-chloro-3-indolyl-phosphate, and 0.36 mg/ml 4-nitro blue tetrazolium chloride (Roche) for 10 minutes at room temperature in the dark. Reaction was stopped by washing with PBS then distilled H2O before air drying. Spots were imaged with an Immunospot Series 3 Analyzer (Cellular Technology, Ltd.) and counted using Image J and the “find Maxima” function. Results are expressed as the mean of triplicate values (±standard error of the mean, SEM) adjusted to per 10^6 cells per well. Student's t-test was performed on data; p<0.05 was considered statistically significant.

[2] = after polarization to Th17 phenotype, exposed to peptide
[3] = after polarization to Th17 phenotype, exposed to peptide, listed as AQP4135-53
[4] = unpolarized cell culture exposed to peptide, versus no stimulation
[5] = unpolarized cell culture exposed to peptide, versus no stimulation, listed as AQP4135-53

Row | Substance | neurological symptoms (paralysis from spinal cord inflammation, visual impairment from optic nerve inflammation) (mice) | T cell response against the peptide (T cells) | antibody production against the loop peptide (AQP4 null mice) | clinical phenotype / autoimmune neurological disease after immunization (mice) | also measured
1 | GILYLVTPPSVVGGLGVTMV [SEQ ID NO: 9, reference compound] | no such neurological symptoms | – | – | – | –
2 | LVTPPSVVGGLGVTMVHGN [SEQ ID NO: 8] | development of phenotypes | remarkable T cell response; also recorded: robust T cell response; also recorded: robust reaction | no evidence of antibody production | did not develop autoimmune neurological disease | number of IFN-γ producing cells [1, 2]: barely detectable; number of IL-17 producing cells [1, 2]: doubled; number of IFN-γ producing cells [1, 3]: nearly undetectable; number of IL-17 producing cells [1, 3]: almost doubled; number of IFN-γ producing cells [1, 4]: significant number; number of IL-17 producing cells [1, 4]: significant number; number of IFN-γ producing cells [1, 5]: significant levels; number of IL-17 producing cells [1, 5]: significant levels
3 | GNWENH (listed as Homo sapiens) [loop E, AQP4 extracellular loop E peptide (human 212-30 used)] | – | – | no evidence of antibody production | – | –
4 | GTEKPLPV (listed as Homo sapiens) [loop A, AQP4 extracellular loop A peptide (human 56-69 used)] | – | – | no evidence of antibody production | – | –
5 | TPPSVVGGLGVTMVHGNLTAG (listed as Homo sapiens) [loop C, peptide corresponding to the second extracellular loop of AQP4] | – | robust T cell response | No evidence of antibody production | no clinical phenotype | T cell response against the peptide (T cells; listed as loop C peptide): robust T cell response; also recorded: stimulated a T cell response
6 | MOG peptide 35-55: myelin-oligodendrocyte glycoprotein (MOG) peptide 35-55 (MEVGWYRSPFSRVVHLYRNGK; UniProt Q61885 63-83, looked up, fragment) [reference compound] | – | – | – | – | T cell proliferative activity (incorporation of tritiated-thymidine) (T cells; T cells from control wildtype mice (wt-MOG) immunized with MOG peptide 35-55): showed proliferative activity
